# Test results taken from the supplement of paper PMC10307832.
# Assays:
# Assay in all cases: relative viability (nuclei count vs DMSO), 5 days (fraction); higher = more cells survive
# [1] = system: NCI-H23
# In short: (§1)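 For relative viability, nuclei counts in treated wells were divided by those in vehicle wells. Lung cancer cell lines had been pin-tool dosed in 1536-well plates the day after seeding and cultured for 5 days, then fixed and stained in one step (final 0.05% Triton X-100, 1% formaldehyde, 1 ug/ml Hoechst) and imaged at 4×. Doses were one drug alone or a fixed anchor-drug dose plus five library-drug doses (not always all listed) in √10 steps, and values are duplicate-plate medians.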
# [2] = system: A-427
# In short: as §1
# [3] = system: NCI-H1563
# In short: as §1
# [4] = system: NCI-H1755
# In short: as §1
# [5] = system: NCI-H441
# In short: as §1
# [6] = system: SK-MES-1
# In short: as §1
# [7] = system: NCI-H596
# In short: as §1
# [8] = system: NCI-H520
# In short: as §1
# [9] = system: NCI-H1666
# In short: as §1
# [10] = system: ChaGo-K-1
# In short: as §1
# [11] = system: LOU-NH91
# In short: as §1
# [12] = system: COR-L 105
# In short: as §1
# [13] = system: NCI-H1734
# In short: as §1
# [14] = system: SW 900
# In short: as §1
# [15] = system: NCI-H2170
# In short: as §1
# [16] = system: NCI-H1975
# In short: as §1
# [17] = system: H3255
# In short: as §1
# [18] = system: EMC-BAC-2
# In short: as §1
# [19] = system: LK-2
# In short: as §1
# [20] = system: HCC-366
# In short: as §1
# [21] = system: PC-3 [JPC-3]
# In short: as §1
# [22] = system: EKVX
# In short: as §1
structure (smiles),measurement,setting,value
O=c1cc(-c2cccc3c2Sc2ccccc2S3)oc(N2CCOCC2)c1 + Nc1nc2[nH]cc(CCc3ccc(C(=O)N[C@@H](CCC(=O)O)C(=O)O)cc3)c2c(=O)[nH]1 [Pemetrexed] (partner 0.2 µM),relative viability,[1]; first compound 0.08 µM,0.584
same,relative viability,[1]; first compound 0.253 µM,0.902
same,relative viability,[1]; first compound 0.8 µM,0.72
same,relative viability,[1]; first compound 2.53 µM,0.518
same,relative viability,[1]; first compound 8 µM,0.575
same,relative viability,[2]; first compound 0.08 µM,0.808
same,relative viability,[2]; first compound 0.253 µM,1
same,relative viability,[2]; first compound 0.8 µM,0.991
same,relative viability,[2]; first compound 2.53 µM,0.92
same,relative viability,[2]; first compound 8 µM,0.993
same,relative viability,[3]; first compound 0.08 µM,0.695
same,relative viability,[3]; first compound 0.253 µM,0.741
same,relative viability,[3]; first compound 0.8 µM,0.744
same,relative viability,[3]; first compound 2.53 µM,0.684
same,relative viability,[3]; first compound 8 µM,0.787
same,relative viability,[4]; first compound 0.08 µM,0.572
same,relative viability,[4]; first compound 0.253 µM,0.398
same,relative viability,[4]; first compound 0.8 µM,0.389
same,relative viability,[4]; first compound 2.53 µM,0.574
same,relative viability,[4]; first compound 8 µM,0.366
same,relative viability,[5]; first compound 0.08 µM,0.258
same,relative viability,[5]; first compound 0.253 µM,0.268
same,relative viability,[5]; first compound 0.8 µM,0.255
same,relative viability,[5]; first compound 2.53 µM,0.26
same,relative viability,[5]; first compound 8 µM,0.241
same,relative viability,[6]; first compound 0.08 µM,1.07
same,relative viability,[6]; first compound 0.253 µM,1.07
same,relative viability,[6]; first compound 0.8 µM,0.838
same,relative viability,[6]; first compound 2.53 µM,0.792
same,relative viability,[6]; first compound 8 µM,0.833
same,relative viability,[7]; first compound 0.08 µM,0.422
same,relative viability,[7]; first compound 0.253 µM,0.52
same,relative viability,[7]; first compound 0.8 µM,0.536
same,relative viability,[7]; first compound 2.53 µM,0.543
same,relative viability,[7]; first compound 8 µM,0.478
same,relative viability,[8]; first compound 0.08 µM,0.634
same,relative viability,[8]; first compound 0.253 µM,0.835
same,relative viability,[8]; first compound 0.8 µM,0.739
same,relative viability,[8]; first compound 2.53 µM,0.717
same,relative viability,[8]; first compound 8 µM,0.69
same,relative viability,[9]; first compound 0.08 µM,0.844
same,relative viability,[9]; first compound 0.253 µM,0.913
same,relative viability,[9]; first compound 0.8 µM,0.762
same,relative viability,[9]; first compound 2.53 µM,0.758
same,relative viability,[9]; first compound 8 µM,0.793
same,relative viability,[10]; first compound 0.08 µM,0.251
same,relative viability,[10]; first compound 0.253 µM,0.264
same,relative viability,[10]; first compound 0.8 µM,0.248
same,relative viability,[10]; first compound 2.53 µM,0.287
same,relative viability,[10]; first compound 8 µM,0.273
same,relative viability,[11]; first compound 0.08 µM,0.332
same,relative viability,[11]; first compound 0.253 µM,0.34
same,relative viability,[11]; first compound 0.8 µM,0.367
same,relative viability,[11]; first compound 2.53 µM,0.397
same,relative viability,[11]; first compound 8 µM,0.31
same,relative viability,[12]; first compound 0.08 µM,1.08
same,relative viability,[12]; first compound 0.253 µM,0.835
same,relative viability,[12]; first compound 0.8 µM,1.1
same,relative viability,[12]; first compound 2.53 µM,0.918
same,relative viability,[12]; first compound 8 µM,1.14
same,relative viability,[13]; first compound 0.08 µM,0.394
same,relative viability,[13]; first compound 0.253 µM,0.45
same,relative viability,[13]; first compound 0.8 µM,0.487
same,relative viability,[13]; first compound 8 µM,0.432
same,relative viability,[14]; first compound 0.253 µM,0.492
same,relative viability,[14]; first compound 0.8 µM,0.495
same,relative viability,[14]; first compound 2.53 µM,0.439
same,relative viability,[14]; first compound 8 µM,0.438
same,relative viability,[15]; first compound 0.08 µM,0.268
same,relative viability,[15]; first compound 0.253 µM,0.271
same,relative viability,[15]; first compound 0.8 µM,0.292
same,relative viability,[15]; first compound 2.53 µM,0.256
same,relative viability,[15]; first compound 8 µM,0.262
same,relative viability,[16]; first compound 0.08 µM,0.318
same,relative viability,[16]; first compound 0.253 µM,0.29
same,relative viability,[16]; first compound 0.8 µM,0.313
same,relative viability,[16]; first compound 2.53 µM,0.287
same,relative viability,[16]; first compound 8 µM,0.288
same,relative viability,[17]; first compound 0.08 µM,0.474
same,relative viability,[17]; first compound 0.253 µM,0.547
same,relative viability,[17]; first compound 0.8 µM,0.533
same,relative viability,[17]; first compound 2.53 µM,0.552
same,relative viability,[17]; first compound 8 µM,0.56
same,relative viability,[18]; first compound 0.08 µM,0.396
same,relative viability,[18]; first compound 0.253 µM,0.473
same,relative viability,[18]; first compound 0.8 µM,0.442
same,relative viability,[18]; first compound 2.53 µM,0.429
same,relative viability,[18]; first compound 8 µM,0.463
same,relative viability,[19]; first compound 0.08 µM,0.312
same,relative viability,[19]; first compound 0.253 µM,0.297
same,relative viability,[19]; first compound 0.8 µM,0.224
same,relative viability,[19]; first compound 2.53 µM,0.256
same,relative viability,[19]; first compound 8 µM,0.284
same,relative viability,[20]; first compound 0.08 µM,0.154
same,relative viability,[20]; first compound 0.253 µM,0.193
same,relative viability,[20]; first compound 0.8 µM,0.167
same,relative viability,[20]; first compound 2.53 µM,0.154
same,relative viability,[20]; first compound 8 µM,0.155
same,relative viability,[21]; first compound 0.08 µM,0.721
same,relative viability,[21]; first compound 0.253 µM,1.11
same,relative viability,[21]; first compound 0.8 µM,1.3
same,relative viability,[21]; first compound 2.53 µM,0.996
same,relative viability,[21]; first compound 8 µM,1.08
same,relative viability,[22]; first compound 0.08 µM,0.428
same,relative viability,[22]; first compound 0.253 µM,0.376
same,relative viability,[22]; first compound 0.8 µM,0.381
same,relative viability,[22]; first compound 2.53 µM,0.482
same,relative viability,[22]; first compound 8 µM,0.436
COc1nc(C)cnc1NS(=O)(=O)c1cccnc1-c1ccc(-c2nnco2)cc1 [Zibotentan] + N=C(N)NC(=N)NCCc1ccccc1 [Phenformin] (partner 250 µM),relative viability,[1]; first compound 0.08 µM,0.85
same,relative viability,[1]; first compound 0.253 µM,0.762
same,relative viability,[1]; first compound 0.8 µM,0.761
same,relative viability,[1]; first compound 2.53 µM,0.86
same,relative viability,[2]; first compound 0.08 µM,0.38
same,relative viability,[2]; first compound 0.253 µM,0.39
same,relative viability,[2]; first compound 0.8 µM,0.397
same,relative viability,[2]; first compound 2.53 µM,0.348
same,relative viability,[3]; first compound 0.08 µM,0.67
same,relative viability,[3]; first compound 0.8 µM,0.66
same,relative viability,[3]; first compound 2.53 µM,0.643
same,relative viability,[4]; first compound 0.08 µM,0.658
same,relative viability,[4]; first compound 0.253 µM,0.636
same,relative viability,[4]; first compound 0.8 µM,0.599
same,relative viability,[4]; first compound 2.53 µM,0.703
same,relative viability,[5]; first compound 0.08 µM,1.07
same,relative viability,[5]; first compound 0.253 µM,0.665
same,relative viability,[5]; first compound 0.8 µM,0.926
same,relative viability,[5]; first compound 2.53 µM,0.895
same,relative viability,[6]; first compound 0.08 µM,0.714
same,relative viability,[6]; first compound 0.253 µM,0.612
same,relative viability,[6]; first compound 0.8 µM,0.678
same,relative viability,[6]; first compound 2.53 µM,0.692
same,relative viability,[7]; first compound 0.08 µM,0.842
same,relative viability,[7]; first compound 0.253 µM,0.786
same,relative viability,[7]; first compound 0.8 µM,0.794
same,relative viability,[7]; first compound 2.53 µM,0.805
same,relative viability,[8]; first compound 0.08 µM,0.726
same,relative viability,[8]; first compound 0.253 µM,0.58
same,relative viability,[8]; first compound 0.8 µM,0.519
same,relative viability,[8]; first compound 2.53 µM,0.581
same,relative viability,[9]; first compound 0.08 µM,0.515
same,relative viability,[9]; first compound 0.253 µM,0.54
same,relative viability,[9]; first compound 0.8 µM,0.596
same,relative viability,[9]; first compound 2.53 µM,0.559
same,relative viability,[10]; first compound 0.08 µM,0.563
same,relative viability,[10]; first compound 0.253 µM,0.42
same,relative viability,[10]; first compound 0.8 µM,0.469
same,relative viability,[10]; first compound 2.53 µM,0.543
same,relative viability,[11]; first compound 0.08 µM,0.712
same,relative viability,[11]; first compound 0.253 µM,0.683
same,relative viability,[11]; first compound 0.8 µM,0.798
same,relative viability,[11]; first compound 2.53 µM,0.819
same,relative viability,[12]; first compound 0.08 µM,0.382
same,relative viability,[12]; first compound 0.253 µM,0.423
same,relative viability,[12]; first compound 0.8 µM,0.406
same,relative viability,[12]; first compound 2.53 µM,0.554
same,relative viability,[13]; first compound 0.08 µM,0.361
same,relative viability,[13]; first compound 0.253 µM,0.396
same,relative viability,[13]; first compound 0.8 µM,0.381
same,relative viability,[13]; first compound 2.53 µM,0.492
same,relative viability,[14]; first compound 0.08 µM,0.557
same,relative viability,[14]; first compound 0.253 µM,0.502
same,relative viability,[14]; first compound 0.8 µM,0.669
same,relative viability,[14]; first compound 2.53 µM,0.801
same,relative viability,[15]; first compound 0.08 µM,0.451
same,relative viability,[15]; first compound 0.253 µM,0.389
same,relative viability,[15]; first compound 0.8 µM,0.436
same,relative viability,[15]; first compound 2.53 µM,0.39
same,relative viability,[16]; first compound 0.08 µM,0.428
same,relative viability,[16]; first compound 0.253 µM,0.398
same,relative viability,[16]; first compound 0.8 µM,0.419
same,relative viability,[16]; first compound 2.53 µM,0.413
same,relative viability,[17]; first compound 0.08 µM,0.386
same,relative viability,[17]; first compound 0.253 µM,0.326
same,relative viability,[17]; first compound 0.8 µM,0.307
same,relative viability,[17]; first compound 2.53 µM,0.354
same,relative viability,[18]; first compound 0.08 µM,0.541
same,relative viability,[18]; first compound 0.8 µM,0.61
same,relative viability,[18]; first compound 2.53 µM,0.538
same,relative viability,[19]; first compound 0.08 µM,0.354
same,relative viability,[19]; first compound 0.253 µM,0.403
same,relative viability,[19]; first compound 0.8 µM,0.467
same,relative viability,[19]; first compound 2.53 µM,0.59
same,relative viability,[20]; first compound 0.08 µM,0.692
same,relative viability,[20]; first compound 0.253 µM,0.62
same,relative viability,[20]; first compound 0.8 µM,0.577
same,relative viability,[20]; first compound 2.53 µM,0.603
same,relative viability,[21]; first compound 0.08 µM,0.459
same,relative viability,[21]; first compound 0.253 µM,0.466
same,relative viability,[21]; first compound 0.8 µM,0.474
same,relative viability,[21]; first compound 2.53 µM,0.499
same,relative viability,[22]; first compound 0.08 µM,0.242
same,relative viability,[22]; first compound 0.253 µM,0.238
same,relative viability,[22]; first compound 0.8 µM,0.249
same,relative viability,[22]; first compound 2.53 µM,0.245
